A value given as a limit tells only on which side of the number the result lay.

In one data set the target is Josephin-1 (Homo sapiens, UniProt Q15040). Kind of data set: Inhibition of human His6-tagged JOSD1 expressed in Escherichia coli assessed as cleavage of Ubiquitin-Rhodamine110-glycine to Ubiquitin and Rhodamine110-glycine using Ubiquitin-Rhodamine110-glycine as substrate by fluorescence based analysis.
Data set [1] deals with Ubiquitin carboxyl-terminal hydrolase 30 (Homo sapiens, UniProt Q70CQ3). Briefly: Inhibition of human USP30 CD (57 to 517 residues) expressed in Escherichia coli assessed as cleavage of Ubiquitin-Rhodamine110-glycine to Ubiquitin and Rhodamine110-glycine using Ubiquitin-Rhodamine110-glycine as substrate by fluorescence based analysis.
The next data set concerns the target AMSH-like protease (Homo sapiens, UniProt Q96FJ0). Briefly: Inhibition of human GST-tagged AMSH-LP CD (264 to 436 residues) expressed in Escherichia coli assessed as cleavage of Ubiquitin-Rhodamine110-glycine to Ubiquitin and Rhodamine110-glycine using Ubiquitin-Rhodamine110-glycine as substrate by fluorescence based analysis.
Data set [2] concerns the target Ubiquitin carboxyl-terminal hydrolase CYLD (Homo sapiens, UniProt Q9NQC7). Briefly: Inhibition of human 6His-tagged CYLD expressed in baculovirus infected Sf21 insect cells assessed as cleavage of Ubiquitin-Rhodamine110-glycine to Ubiquitin and Rhodamine110-glycine using Ubiquitin-Rhodamine110-glycine as substrate by fluorescence based analysis.
Data set [3] has as its target Ubiquitin carboxyl-terminal hydrolase isozyme L5 (Homo sapiens, UniProt Q9Y5K5). Kind of data set: Inhibition of human GST-tagged UCHL5 expressed in Escherichia coli assessed as cleavage of Ubiquitin-Rhodamine110-glycine to Ubiquitin and Rhodamine110-glycine using Ubiquitin-Rhodamine110-glycine as substrate by fluorescence based analysis.
In data set [4] the target is OTU domain-containing protein 1 (Homo sapiens, UniProt Q5VV17). Kind of data set: Inhibition of human 6His-tagged OTUD1 CD (270 to 481 residues) expressed in Escherichia coli assessed as cleavage of Ubiquitin-Rhodamine110-glycine to Ubiquitin and Rhodamine110-glycine using Ubiquitin-Rhodamine110-glycine as substrate by fluorescence based analysis.
Chain of OTU domain-containing protein 1 (Q5VV17 whole entry, the tested form may be a part): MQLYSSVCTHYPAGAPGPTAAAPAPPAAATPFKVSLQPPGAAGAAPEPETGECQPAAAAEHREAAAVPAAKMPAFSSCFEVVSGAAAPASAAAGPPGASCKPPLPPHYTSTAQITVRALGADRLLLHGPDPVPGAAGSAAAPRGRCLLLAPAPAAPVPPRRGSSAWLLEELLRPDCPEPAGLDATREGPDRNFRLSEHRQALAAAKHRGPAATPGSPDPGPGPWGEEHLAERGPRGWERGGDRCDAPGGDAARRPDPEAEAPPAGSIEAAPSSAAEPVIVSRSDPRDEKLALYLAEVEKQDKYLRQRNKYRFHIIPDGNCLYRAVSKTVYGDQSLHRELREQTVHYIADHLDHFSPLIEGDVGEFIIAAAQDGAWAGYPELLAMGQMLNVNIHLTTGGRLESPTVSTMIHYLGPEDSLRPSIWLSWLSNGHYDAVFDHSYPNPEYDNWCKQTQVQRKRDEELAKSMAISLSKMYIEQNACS
Data set [5] deals with Voltage-gated inwardly rectifying potassium channel KCNH2 (Homo sapiens, UniProt Q12809). Briefly: Inhibition of human ERG.
Chain of Voltage-gated inwardly rectifying potassium channel KCNH2 (Q12809 whole entry): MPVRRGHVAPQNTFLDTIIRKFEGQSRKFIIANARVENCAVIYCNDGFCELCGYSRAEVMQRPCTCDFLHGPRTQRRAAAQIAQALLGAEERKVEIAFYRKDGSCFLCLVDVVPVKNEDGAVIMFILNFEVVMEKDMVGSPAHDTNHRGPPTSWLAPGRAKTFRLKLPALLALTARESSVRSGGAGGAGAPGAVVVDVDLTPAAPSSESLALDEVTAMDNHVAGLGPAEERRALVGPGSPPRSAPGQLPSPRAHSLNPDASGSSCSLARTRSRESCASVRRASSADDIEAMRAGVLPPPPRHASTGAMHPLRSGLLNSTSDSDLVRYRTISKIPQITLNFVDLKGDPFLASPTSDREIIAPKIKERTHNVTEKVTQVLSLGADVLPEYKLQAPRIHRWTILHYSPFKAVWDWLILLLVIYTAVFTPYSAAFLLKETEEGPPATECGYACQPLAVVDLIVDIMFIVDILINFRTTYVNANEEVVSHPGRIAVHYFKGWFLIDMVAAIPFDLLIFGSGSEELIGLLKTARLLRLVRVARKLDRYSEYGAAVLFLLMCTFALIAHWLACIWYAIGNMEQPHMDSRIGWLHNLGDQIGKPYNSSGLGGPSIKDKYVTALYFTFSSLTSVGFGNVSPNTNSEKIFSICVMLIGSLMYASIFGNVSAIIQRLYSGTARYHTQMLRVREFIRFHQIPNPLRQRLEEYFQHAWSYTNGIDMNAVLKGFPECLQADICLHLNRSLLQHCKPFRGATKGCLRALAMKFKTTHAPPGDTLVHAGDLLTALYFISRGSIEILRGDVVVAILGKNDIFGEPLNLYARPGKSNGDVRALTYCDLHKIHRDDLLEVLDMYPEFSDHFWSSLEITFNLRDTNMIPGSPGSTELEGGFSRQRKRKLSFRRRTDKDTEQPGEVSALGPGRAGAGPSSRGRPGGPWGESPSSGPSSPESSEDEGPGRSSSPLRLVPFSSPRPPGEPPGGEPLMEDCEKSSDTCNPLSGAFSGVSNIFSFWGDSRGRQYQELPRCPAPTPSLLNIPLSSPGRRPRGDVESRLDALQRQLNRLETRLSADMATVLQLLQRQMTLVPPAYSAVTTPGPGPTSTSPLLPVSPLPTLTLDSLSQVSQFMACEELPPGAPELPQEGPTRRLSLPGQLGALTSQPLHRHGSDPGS
Data set [6] is described as follows: Clearance in Sprague-Dawley rat at 0.5 mg/kg, iv. In kind it is ADME, organism-based. Particulars: in vivo.
The target in data set [7] is T1, Ubiquitin carboxyl-terminal hydrolase 1 (Homo sapiens, UniProt O94782).
T1 sequence (O94782 whole entry): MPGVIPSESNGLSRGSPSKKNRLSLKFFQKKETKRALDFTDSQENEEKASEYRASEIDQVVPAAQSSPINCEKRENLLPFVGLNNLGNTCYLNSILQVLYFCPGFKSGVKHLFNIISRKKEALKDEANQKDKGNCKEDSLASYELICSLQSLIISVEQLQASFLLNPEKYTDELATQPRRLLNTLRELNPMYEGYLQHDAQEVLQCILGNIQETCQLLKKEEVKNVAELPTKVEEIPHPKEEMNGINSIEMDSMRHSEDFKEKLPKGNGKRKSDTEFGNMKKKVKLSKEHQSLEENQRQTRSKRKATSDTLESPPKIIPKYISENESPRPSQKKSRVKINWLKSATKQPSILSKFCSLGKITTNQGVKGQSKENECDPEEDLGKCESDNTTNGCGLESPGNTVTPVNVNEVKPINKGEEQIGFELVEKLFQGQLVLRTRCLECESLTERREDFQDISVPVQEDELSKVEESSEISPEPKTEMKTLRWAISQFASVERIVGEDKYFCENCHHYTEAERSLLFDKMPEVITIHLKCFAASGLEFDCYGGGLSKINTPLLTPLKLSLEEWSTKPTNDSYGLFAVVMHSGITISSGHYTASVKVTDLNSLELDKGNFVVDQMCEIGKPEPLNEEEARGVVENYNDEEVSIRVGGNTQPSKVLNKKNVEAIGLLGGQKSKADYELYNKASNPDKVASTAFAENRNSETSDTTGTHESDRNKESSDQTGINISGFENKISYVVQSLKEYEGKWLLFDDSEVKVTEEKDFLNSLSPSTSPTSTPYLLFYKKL
Briefly: Inhibition of His6-tagged human USP1 expressed in insect Sf21 cells coexpressing untagged UAF1 assessed as cleavage of Ubiquitin-Rhodamine110-glycine to Ubiquitin and Rhodamine110-glycine using Ubiquitin-Rhodamine110-glycine as substrate by fluorescence based analysis.

Data set [8] deals with Ubiquitin carboxyl-terminal hydrolase 45 (Homo sapiens, UniProt Q70EL2). Briefly: Inhibition of USP45 (unknown origin).
For data set [9], the target named is Ubiquitin carboxyl-terminal hydrolase 11 (Homo sapiens, UniProt P51784). Kind of data set: Inhibition of USP11 (unknown origin).
Chain of Ubiquitin carboxyl-terminal hydrolase 11 (P51784 whole entry): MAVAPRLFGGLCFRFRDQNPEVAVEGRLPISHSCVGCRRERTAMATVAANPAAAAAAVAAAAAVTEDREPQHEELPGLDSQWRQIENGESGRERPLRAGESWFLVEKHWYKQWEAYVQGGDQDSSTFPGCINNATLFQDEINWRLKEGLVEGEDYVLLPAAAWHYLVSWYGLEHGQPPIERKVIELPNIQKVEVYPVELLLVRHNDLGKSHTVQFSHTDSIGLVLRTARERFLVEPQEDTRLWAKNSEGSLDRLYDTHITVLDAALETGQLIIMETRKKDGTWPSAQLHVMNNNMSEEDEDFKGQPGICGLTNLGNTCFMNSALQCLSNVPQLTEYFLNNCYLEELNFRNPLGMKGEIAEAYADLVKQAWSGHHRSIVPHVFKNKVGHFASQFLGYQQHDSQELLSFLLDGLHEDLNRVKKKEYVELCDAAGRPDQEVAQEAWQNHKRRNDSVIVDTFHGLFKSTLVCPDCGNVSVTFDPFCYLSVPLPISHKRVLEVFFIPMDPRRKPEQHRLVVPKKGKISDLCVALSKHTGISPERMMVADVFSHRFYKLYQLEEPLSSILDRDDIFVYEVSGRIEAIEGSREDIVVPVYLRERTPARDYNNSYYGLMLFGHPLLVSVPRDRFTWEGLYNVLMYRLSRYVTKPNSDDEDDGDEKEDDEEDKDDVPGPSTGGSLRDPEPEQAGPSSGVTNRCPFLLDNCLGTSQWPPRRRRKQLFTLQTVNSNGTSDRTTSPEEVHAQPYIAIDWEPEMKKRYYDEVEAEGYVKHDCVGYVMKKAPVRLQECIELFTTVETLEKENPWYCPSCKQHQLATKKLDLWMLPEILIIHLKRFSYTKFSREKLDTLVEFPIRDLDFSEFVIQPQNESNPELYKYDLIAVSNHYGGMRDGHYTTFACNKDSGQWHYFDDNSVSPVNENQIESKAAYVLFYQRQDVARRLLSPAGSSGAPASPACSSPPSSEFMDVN
Data set [10] has as its target Ubiquitin carboxyl-terminal hydrolase 7 (Homo sapiens, UniProt Q93009). Kind of data set: Inhibition of recombinant full length USP7 (unknown origin) using ubiquintin-rhodamine as substrate preincubated for 30 mins followed by substrate addition measured after 1 hr by fluorescence-based Envision plate reader assay.
Another data set deals with Deubiquitinase OTUD6B (Homo sapiens, UniProt Q8N6M0). Briefly: Inhibition of human GST-tagged OTUD6B expressed in Escherichia coli assessed as cleavage of Ubiquitin-Rhodamine110-glycine to Ubiquitin and Rhodamine110-glycine using Ubiquitin-Rhodamine110-glycine as substrate by fluorescence based analysis.
Data set [11] has as its target OTU domain-containing protein 6A (Homo sapiens, UniProt Q7L8S5). Kind of data set: Inhibition of human His6-tagged OTUD6A expressed in Escherichia coli assessed as cleavage of Ubiquitin-Rhodamine110-glycine to Ubiquitin and Rhodamine110-glycine using Ubiquitin-Rhodamine110-glycine as substrate by fluorescence based analysis.
The target in data set [12] is Ubiquitin carboxyl-terminal hydrolase 14 (Homo sapiens, UniProt P54578). Briefly: Inhibition of human His6-tagged USP14 expressed in Escherichia coli using Ubiquitin-Rhodamine110-glycine as substrate by fluorescence based analysis.
Data set [13] deals with Ubiquitin carboxyl-terminal hydrolase 20 (Homo sapiens, UniProt Q9Y2K6). Briefly: Inhibition of human GST-tagged USP20 expressed in Sf21 insect cells assessed as cleavage of Ubiquitin-Rhodamine110-glycine to Ubiquitin and Rhodamine110-glycine using Ubiquitin-Rhodamine110-glycine as substrate by fluorescence based analysis.
The target in data set [14] is Ubiquitin carboxyl-terminal hydrolase 28 (Homo sapiens, UniProt Q96RU2). Kind of data set: Inhibition of human GST-tagged USP28 expressed in Escherichia coli assessed as cleavage of Ubiquitin-Rhodamine110-glycine to Ubiquitin and Rhodamine110-glycine using Ubiquitin-Rhodamine110-glycine as substrate by fluorescence based analysis.
The target in data set [15] is Ubiquitin carboxyl-terminal hydrolase isozyme L1 (Homo sapiens, UniProt P09936). Briefly: Inhibition of human 6His-tagged UCHL1 expressed in Escherichia coli assessed as cleavage of Ubiquitin-Rhodamine110-glycine to Ubiquitin and Rhodamine110-glycine using Ubiquitin-Rhodamine110-glycine as substrate by fluorescence based analysis.
Chain of Ubiquitin carboxyl-terminal hydrolase isozyme L1 (P09936 whole entry, the tested form may be a part): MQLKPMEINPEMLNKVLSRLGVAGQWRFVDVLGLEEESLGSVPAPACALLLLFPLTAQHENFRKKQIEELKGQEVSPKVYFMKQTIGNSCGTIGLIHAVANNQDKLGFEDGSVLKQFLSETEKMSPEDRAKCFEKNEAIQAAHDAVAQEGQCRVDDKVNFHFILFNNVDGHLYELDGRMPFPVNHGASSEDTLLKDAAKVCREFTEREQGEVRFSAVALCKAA
The target in data set [16] is Ubiquitin carboxyl-terminal hydrolase 6 (Homo sapiens, UniProt P35125). Briefly: Inhibition of human GST-tagged USP6 CD (529 to 1406 residues) expressed in Sf21 insect cells assessed as cleavage of Ubiquitin-Rhodamine110-glycine to Ubiquitin and Rhodamine110-glycine using Ubiquitin-Rhodamine110-glycine as substrate by fluorescence based analysis.

Chain of Ubiquitin carboxyl-terminal hydrolase 7 (Q93009 whole entry): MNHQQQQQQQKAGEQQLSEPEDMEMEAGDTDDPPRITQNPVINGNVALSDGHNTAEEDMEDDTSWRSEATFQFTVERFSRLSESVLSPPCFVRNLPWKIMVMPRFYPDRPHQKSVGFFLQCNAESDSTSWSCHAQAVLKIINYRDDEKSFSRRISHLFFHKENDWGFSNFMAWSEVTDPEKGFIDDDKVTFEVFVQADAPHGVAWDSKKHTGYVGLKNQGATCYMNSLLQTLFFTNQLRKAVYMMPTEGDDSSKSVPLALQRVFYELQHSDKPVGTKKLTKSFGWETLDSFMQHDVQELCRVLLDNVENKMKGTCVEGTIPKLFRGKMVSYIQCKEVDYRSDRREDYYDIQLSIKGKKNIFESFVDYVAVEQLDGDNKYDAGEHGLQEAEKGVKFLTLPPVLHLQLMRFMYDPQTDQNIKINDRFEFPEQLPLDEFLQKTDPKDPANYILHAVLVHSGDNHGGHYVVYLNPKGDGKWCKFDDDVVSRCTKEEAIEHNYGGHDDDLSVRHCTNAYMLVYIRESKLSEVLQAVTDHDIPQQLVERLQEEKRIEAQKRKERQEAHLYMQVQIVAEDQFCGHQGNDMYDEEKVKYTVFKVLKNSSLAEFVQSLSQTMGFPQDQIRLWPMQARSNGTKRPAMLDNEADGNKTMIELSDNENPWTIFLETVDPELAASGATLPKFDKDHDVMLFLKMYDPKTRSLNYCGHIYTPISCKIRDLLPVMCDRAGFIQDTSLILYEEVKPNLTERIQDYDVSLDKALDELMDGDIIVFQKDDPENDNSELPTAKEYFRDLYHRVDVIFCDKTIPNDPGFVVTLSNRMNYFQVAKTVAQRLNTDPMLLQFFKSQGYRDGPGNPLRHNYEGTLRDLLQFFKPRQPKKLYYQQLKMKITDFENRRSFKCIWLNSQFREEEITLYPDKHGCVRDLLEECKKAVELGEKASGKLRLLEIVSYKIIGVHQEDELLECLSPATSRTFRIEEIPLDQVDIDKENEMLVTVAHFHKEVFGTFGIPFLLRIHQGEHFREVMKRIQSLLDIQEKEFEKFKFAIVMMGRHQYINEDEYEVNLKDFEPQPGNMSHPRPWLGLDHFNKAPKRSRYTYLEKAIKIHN
Chain of AMSH-like protease (Q96FJ0 whole entry, the tested form may be a part): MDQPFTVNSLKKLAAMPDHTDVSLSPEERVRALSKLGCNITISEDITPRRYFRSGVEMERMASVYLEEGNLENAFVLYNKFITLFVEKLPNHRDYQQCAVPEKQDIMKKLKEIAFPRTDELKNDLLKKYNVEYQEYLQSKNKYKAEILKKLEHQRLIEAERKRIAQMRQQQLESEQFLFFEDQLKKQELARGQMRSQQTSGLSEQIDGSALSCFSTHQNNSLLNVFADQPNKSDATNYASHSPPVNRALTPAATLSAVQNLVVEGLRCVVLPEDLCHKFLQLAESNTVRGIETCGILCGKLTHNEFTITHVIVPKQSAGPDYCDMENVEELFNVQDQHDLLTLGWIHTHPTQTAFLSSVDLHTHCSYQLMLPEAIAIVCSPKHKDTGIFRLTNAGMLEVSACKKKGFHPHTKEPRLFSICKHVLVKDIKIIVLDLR
Chain of Ubiquitin carboxyl-terminal hydrolase isozyme L5 (Q9Y5K5 whole entry, the tested form may be a part): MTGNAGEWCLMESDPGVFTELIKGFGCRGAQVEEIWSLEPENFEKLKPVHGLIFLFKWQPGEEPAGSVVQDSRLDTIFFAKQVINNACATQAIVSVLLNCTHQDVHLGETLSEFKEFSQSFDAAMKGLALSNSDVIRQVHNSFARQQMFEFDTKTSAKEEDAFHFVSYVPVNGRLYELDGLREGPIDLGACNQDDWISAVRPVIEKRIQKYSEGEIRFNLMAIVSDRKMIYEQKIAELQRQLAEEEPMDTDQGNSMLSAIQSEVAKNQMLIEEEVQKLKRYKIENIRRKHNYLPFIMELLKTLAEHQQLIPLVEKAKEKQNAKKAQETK
Chain of OTU domain-containing protein 6A (Q7L8S5 whole entry, the tested form may be a part): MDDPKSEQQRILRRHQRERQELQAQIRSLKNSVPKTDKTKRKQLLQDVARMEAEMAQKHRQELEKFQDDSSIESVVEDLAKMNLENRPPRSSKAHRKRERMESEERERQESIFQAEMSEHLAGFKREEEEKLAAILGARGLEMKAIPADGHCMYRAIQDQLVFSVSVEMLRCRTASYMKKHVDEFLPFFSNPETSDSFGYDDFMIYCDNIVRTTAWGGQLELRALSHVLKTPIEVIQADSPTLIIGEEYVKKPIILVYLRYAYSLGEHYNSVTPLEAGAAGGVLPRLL

The term IC50 denotes the concentration that inhibits the measured activity by half. The clearance is the volume of plasma or blood freed of the substance per unit of time. A higher clearance goes with a high capacity for elimination. `Cc1cc(Cl)cc(-c2ccnc3cc(CN4C(=O)C5C(C4=O)C5(C)C)sc23)c1O[C@@H]1CCNC[C@@H]1C` (some centres undefined): the IC50 (at Josephin-1; in data set [1]; at AMSH-like protease; in [2]; in data set [3]; in data set [4]) was more than 10 µM throughout. The IC50 in data set [5] is 0.4 µM; in data set [7], more than 10 µM; in data set [8], more than 10 µM; in [9] it was more than 10 µM; in [10] it was 0.00018 µM; on Deubiquitinase OTUD6B, more than 10 µM. Besides, the IC50 in data set [11], in data set [12], in data set [13], in [14], in [15] and in [16] was more than 10 µM each time. The clearance in data set [6] was 1.83 mL/min/kg.

The values above are taken from ChEMBL document CHEMBL4602719, “Discovery of Potent, Selective, and Orally Bioavailable Inhibitors of USP7 with In Vivo Antitumor Activity” (J Med Chem, 2020).
